Assay results reported in patent US9247759B2, “Identification of human T2R receptors that respond to bitter compounds that elicit the bitter taste in compositions, and the use thereof in assays to identify compounds that inhibit (block) bitter taste in compositions and use thereof” (SENOMYX, INC., priority 2007, dated 2016).
Read-outs that look alike come from different tables or passages of the source.

Target: hT2R8 (Homo sapiens (Human), UniProt Q9NYW2)
Experiment: hT2R8 antagonist high-throughput FLIPR assay, stable cell line with G16g44, agonist andrographolide
Format: cell-based
Source text: After a ligand is identified for a particular hT2R, a HEK293 cell line stably expressing both the hT2R and G16gust44 are generated, facilitating future screening assays to identify other ligands that activate the particular hT2R or which modulate (block or enhance) the activation of this hT2R by another bitter ligand such as a bitter compound contained in coffee. This avoids the need for transient transfection.
(§1) To identify antagonists, cell lines stably expressing hT2R8 and hT2R14, respectively, together with the promiscuous chimeric G16g44 protein were generated as described in previous patent applications. A high-throughput assay was established using the stable cell lines and FLIPR (Fluorescent Imaging Plate Reader). An agonist of hT2R8 or hT2R14 was used to activate the receptors up to 70-80% of their respective maximal activity. For hT2R8, the agonist used was andrographolide (200 λM); for hT2R14, it was aristolochic acid (3 μM). To identify antagonists, compounds with diverse chemical structures were added together with the agonist.
as §1, with “hT2R8” for “hT2R8 and hT2R14, respectively,”, “hT2R8” for “hT2R8 or hT2R14”, “(200” for “(200 λM); for hT2R14, it was aristolochic acid (3”

[1] = table after Example 12-37, read-out: hT2R8 IC50
[2] = read-out: IC50 on hT2R8 bitter receptor
[3] = table after Example 10-97, read-out: hT2R8 IC50
[4] = unit uM, read-out: IC50 on hT2R08 bitter receptor

hT2R8, sequence (Q9NYW2 whole entry): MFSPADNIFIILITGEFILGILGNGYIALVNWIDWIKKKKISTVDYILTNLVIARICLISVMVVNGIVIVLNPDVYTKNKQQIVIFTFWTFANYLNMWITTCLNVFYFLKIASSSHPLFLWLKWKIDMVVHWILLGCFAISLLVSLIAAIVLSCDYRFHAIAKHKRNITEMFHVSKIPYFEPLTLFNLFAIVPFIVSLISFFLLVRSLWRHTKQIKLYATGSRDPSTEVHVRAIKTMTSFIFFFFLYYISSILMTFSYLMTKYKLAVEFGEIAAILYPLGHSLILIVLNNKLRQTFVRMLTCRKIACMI

| Structure (SMILES) | IC50 (Table A, read-out: hT2R8 IC50) [µM] | IC50 [2] [µM] | IC50 [3] [µM] | other results |
| --- | --- | --- | --- | --- |
| Cc1noc(C)c1Cn1cc(N2C(=O)N(Cc3ccn(C)n3)C(C)(C)C2=O)cn1 [Example 12-71, 3-(1-((3,5-dimethylisoxazol-4-yl)methyl)-1H-pyrazol-4-yl)-5,5-dimethyl-1-((1-methyl-1H-pyrazol-3-yl)methyl)imidazolidine-2,4-dione] |  |  |  | IC50 [1]: 0.42 µM |
| Cc1ccccc1S(=O)(=O)Nc1cnn(Cc2c(C)noc2C)c1 [Example 4-102, N-(1-((3,5-dimethylisoxazol-4-yl)methyl)-1H-pyrazol-4-yl)-2-methylbenzenesulfonamide] | 2.15 |  |  |  |
| Cc1noc(C)c1Cn1cc(NC(=O)CC2CCCCC2)cn1 [Example 4-14, 2-cyclohexyl-N-(1-((3,5-dimethylisoxazol-4-yl)methyl)-1H-pyrazol-4-yl)acetamide] |  | 0.73 |  |  |
| COCCOc1cccc(CN2CC(=O)N(c3cnn(Cc4c(C)noc4C)c3)C2=O)c1 [Example 10-14, 3-(1-((3,5-dimethylisoxazol-4-yl)methyl)-1H-pyrazol-4-yl)-1-(3-(2-methoxyethoxy)benzyl)imidazolidine-2,4-dione] |  |  | 0.071 | IC50 [4]: 0.07 µM |
| Cc1noc(C)c1Cn1cc(NC(=S)Nc2ccccc2C#N)cn1 [Example 4-111, 1-(2-cyanophenyl)-3-(1-((3,5-dimethylisoxazol-4-yl)methyl)-1H-pyrazol-4-yl)thiourea] | 2.35 |  |  |  |
| Cc1noc(C)c1Cn1cc(NC(=O)c2ccc3nccnc3c2)cn1 [Example 4-82, N-(1-((3,5-dimethylisoxazol-4-yl)methyl)-1H-pyrazol-4-yl)quinoxaline-6-carboxamide] | 0.8 |  |  |  |
| Cc1noc(C)c1Cn1cc(-n2c(=O)[nH]c(=O)n(CCc3ccccc3)c2=O)cn1 [Example 9-8, 1-(1-((3,5-dimethylisoxazol-4-yl)methyl)-1H-pyrazol-4-yl)-3-phenethyl-1,3,5-triazinane-2,4,6-trione] |  | 3.03 | 6.15 |  |
| Cc1cc2cc(C(=O)Nc3cnn(Cc4c(C)noc4C)c3)ccc2o1 [Example 4-75, N-(1-((3,5-dimethylisoxazol-4-yl)methyl)-1H-pyrazol-4-yl)-2-methylbenzofuran-5-carboxamide] | 2.1 |  |  |  |
| Cc1noc(C)c1Cn1cc(N2C(=O)NC(Cc3ccc(O)c(O)c3)C2=O)cn1 (stereo not drawn) [Example 10-60, 5-(3,4-dihydroxybenzyl)-3-(1-((3,5-dimethylisoxazol-4-yl)methyl)-1H-pyrazol-4-yl)imidazolidine-2,4-dione] |  | 0.51 | 0.513 |  |
| COc1ccnc(CN2CC(=O)N(c3cnn(Cc4c(C)noc4C)c3)C2=O)c1OC [Example 10-72, 1-((3,4-dimethoxypyridin-2-yl)methyl)-3-(1-((3,5-dimethylisoxazol-4-yl)methyl)-1H-pyrazol-4-yl)imidazolidine-2,4-dione] |  | 1 | 0.999 |  |
| Cc1noc(C)c1Cn1cc(NC(=O)c2cccc3nccnc23)cn1 [Example 4-76, N-(1-((3,5-dimethylisoxazol-4-yl)methyl)-1H-pyrazol-4-yl)quinoxaline-5-carboxamide] | 1.7 |  |  |  |
| Cc1noc(C)c1Cn1cc(N2C(=O)CN(Cc3cccc(C(=O)O)c3)C2=O)cn1 [Example 10-8, 3-((3-(1-((3,5-dimethylisoxazol-4-yl)methyl)-1H-pyrazol-4-yl)-2,4-dioxoimidazolidin-1-yl)methyl)benzoic acid] |  | 1.8 | 1.8 |  |
| Cc1noc(C)c1Cn1cc(N2C(=O)CN(Cc3ccc4c(c3)OCO4)C2=O)cn1 [Example 10-36, 1-(benzo[d][1,3]dioxol-5-ylmethyl)-3-(1-((3,5-dimethylisoxazol-4-yl)methyl)-1H-pyrazol-4-yl)imidazolidine-2,4-dione] |  |  | 0.053 | IC50 [4]: 0.07 µM |
| Cc1noc(C)c1Cn1cc(N2CNCN(Cc3ccccc3)C2=O)cn1 [Example 9-6, 1-benzyl-3-(1-((3,5-dimethylisoxazol-4-yl)methyl)-1H-pyrazol-4-yl)-1,3,5-triazinan-2-one] |  | 5.84 | 6.03 |  |
| COC(=O)c1cccc(CN2C(=O)N(c3cnn(Cc4c(C)noc4C)c3)C(=O)C2(C)C)c1 [Example 12-55] |  |  |  | IC50 [1]: 0.22 µM |
| Cc1nc2ccc(C(=O)Nc3cnn(Cc4c(C)noc4C)c3)cc2o1 [Example 4-83, N-(1-((3,5-dimethylisoxazol-4-yl)methyl)-1H-pyrazol-4-yl)-2-methylbenzo[d]oxazole-6-carboxamide] | 0.7 |  |  |  |

| Structure (SMILES) | IC50 (Table A, read-out: hT2R8 IC50) [µM] | IC50 [2] [µM] | IC50 [3] [µM] | other results |
| --- | --- | --- | --- | --- |
| COc1ccc(CN2C(=O)N(c3cnn(Cc4c(C)noc4C)c3)C(=O)C2(C)C)cc1C [Example 12-76, 3-(1-((3,5-dimethylisoxazol-4-yl)methyl)-1H-pyrazol-4-yl)-1-(4-methoxy-3-methylbenzyl)-5,5-dimethylimidazolidine-2,4-dione] |  |  |  | IC50 [1]: 0.54 µM |
| COc1cc(CC(=O)Nc2cnn(Cc3c(C)noc3C)c2)cc(OC)c1 [Example 4-32, 2-(3,5-dimethoxyphenyl)-N-(1-((3,5-dimethylisoxazol-4-yl)methyl)-1H-pyrazol-4-yl)acetamide] | 0.96 |  |  |  |
| Cc1ccccc1NC(=S)Nc1cnn(Cc2c(C)noc2C)c1 [Example 4-108, 1-(1-((3,5-dimethylisoxazol-4-yl)methyl)-1H-pyrazol-4-yl)-3-o-tolylthiourea] | 3.01 |  |  |  |
| Cc1noc(C)c1Cn1cc(N2C(=O)CN(Cc3cccc(CNC(=O)OC(C)(C)C)c3)C2=O)cn1 [Example 10-96, tert-butyl 3-((3-(1-((3,5-dimethylisoxazol-4-yl)methyl)-1H-pyrazol-4-yl)-2,4-dioxoimidazolidin-1-yl)methyl)benzylcarbamate] |  | 0.9 | 0.891 |  |
| Cc1noc(C)c1Cn1cc(N2C(=O)N(Cc3cccc(O)c3)C3(CCC3)C2=O)cn1 [Example 12-4, 7-(1-((3,5-dimethylisoxazol-4-yl)methyl)-1H-pyrazol-4-yl)-5-(3-hydroxybenzyl)-5,7-diazaspiro[3.4]octane-6,8-dione] |  | 0.03 |  |  |
| Cc1cccc(C(=O)Nc2cnn(Cc3c(C)noc3C)c2)n1 [Example 4-48, N-(1-((3,5-dimethylisoxazol-4-yl)methyl)-1H-pyrazol-4-yl)-6-methylpicolinamide] | 1.95 |  |  |  |
| CCC(C(=O)Nc1cnn(Cc2c(C)noc2C)c1)c1ccccc1 (stereo not drawn) [Example 4-37, N-(1-((3,5-dimethylisoxazol-4-yl)methyl)-1H-pyrazol-4-yl)-2-phenylbutanamide] | 0.5 |  |  |  |
| Cc1noc(C)c1Cn1cc(N2C(=O)N(Cc3cccc(O)c3)C(C)(CO)C2=O)cn1 (stereo not drawn) [Example 12-10, 3-(1-((3,5-dimethylisoxazol-4-yl)methyl)-1H-pyrazol-4-yl)-1-(3-hydroxybenzyl)-5-(hydroxymethyl)-5-methylimidazolidine-2,4-dione] |  | 0.13 |  |  |
| Cc1noc(C)c1Cn1cc(N2C(=O)N(Cc3cccc(O)c3)C3(CCCC3)C2=O)cn1 [Example 12-5, 3-(1-((3,5-dimethylisoxazol-4-yl)methyl)-1H-pyrazol-4-yl)-1-(3-hydroxybenzyl)-1,3-diazaspiro[4.4]nonane-2,4-dione] |  | 0.07 |  |  |
| COc1cccc(C(=O)Nc2cn(Cc3c(C)noc3C)nc2C)c1 [Example 4-115, N-(1-((3,5-dimethylisoxazol-4-yl)methyl)-3-methyl-1H-pyrazol-4-yl)-3-methoxybenzamide] | 9.25 |  |  |  |
| Cc1noc(C)c1Cn1cc(N2C(=O)NC(CO)C2=O)cn1 (stereo not drawn) [Example 10-97, 3-(1-((3,5-dimethylisoxazol-4-yl)methyl)-1H-pyrazol-4-yl)-5-(hydroxymethyl)imidazolidine-2,4-dione] |  | 3 |  |  |
| Cc1cccc(CN2C(=O)N(c3cnn(Cc4c(C)noc4C)c3)C(=O)C2(C)C)c1F [Example 12-82, 3-(1-((3,5-dimethylisoxazol-4-yl)methyl)-1H-pyrazol-4-yl)-1-(2-fluoro-3-methylbenzyl)-5,5-dimethylimidazolidine-2,4-dione] |  |  |  | IC50 [1]: 0.81 µM |
| CNC(=O)c1cccc(CN2CC(=O)N(c3cnn(Cc4c(C)noc4C)c3)C2=O)c1 [Example 10-9, 3-((3-(1-((3,5-dimethylisoxazol-4-yl)methyl)-1H-pyrazol-4-yl)-2,4-dioxoimidazolidin-1-yl)methyl)-N-methylbenzamide] |  | 0.14 | 0.141 |  |
| COc1cccc(CN2C(=O)N(c3cnn(Cc4c(C)noc4C)c3)C(=O)C2(C)C)c1OC [Example 12-64, 1-(2,3-dimethoxybenzyl)-3-(1-((3,5-dimethylisoxazol-4-yl)methyl)-1H-pyrazol-4-yl)-5,5-dimethylimidazolidine-2,4-dione] |  |  |  | IC50 [1]: 0.3 µM |
| COCn1c(=O)n(-c2cnn(Cc3c(C)noc3C)c2)c(=O)n1Cc1ccccc1 [Example 10-89, 1-benzyl-4-(1-((3,5-dimethylisoxazol-4-yl)methyl)-1H-pyrazol-4-yl)-2-(methoxymethyl)-1,2,4-triazolidine-3,5-dione] |  | 0.02 | 0.024 |  |
| COc1cc2c(cc1C(=O)Nc1cnn(Cc3c(C)noc3C)c1)OCCO2 [Example 4-95, N-(1-((3,5-dimethylisoxazol-4-yl)methyl)-1H-pyrazol-4-yl)-7-methoxy-2,3-dihydrobenzo[b][1,4]dioxine-6-carboxamide] |  | 0.7 |  |  |
